According to article PMC9237828, “Chemically Tuning Resveratrol for the Effective Killing of Gram-Positive Pathogens” (Journal of Natural Products, 2022):
Converted amounts (≈) assume the structure as drawn. Where two headings read alike, the source gives them in different places. Non-standard residues stand in square brackets, D forms with d. Residues, ends and D or L forms follow the SMILES beside them. Orn = NCCC[C@H](N)C(=O)O

How the values were obtained:
B. cereus ATCC10987 [1] = test: microbe, parasite or virus in culture; type: cell-based, Bacillus cereus; details: Bacillus cereus, ATCC10987, 20 h, read-out: Minimal Inhibition Concentration (MIC) B. cereus ATCC10987
B. cereus ATCC14579 = test: microbe, parasite or virus in culture; type: cell-based, Bacillus cereus; details: Bacillus cereus, ATCC14579, 20 h, read-out: Minimal Inhibition Concentration (MIC) B. cereus ATCC14579
E. faecalis LMG08222 = test: microbe, parasite or virus in culture; type: cell-based, Enterococcus faecalis; details: Enterococcus faecalis, LMG08222, 20 h, read-out: Minimal Inhibition Concentration (MIC) E. faecalis LMG08222
E. faecalis LMG16216 = test: microbe, parasite or virus in culture; type: cell-based, Enterococcus faecalis; details: Enterococcus faecalis, LMG16216, 20 h, read-out: Minimal Inhibition Concentration (MIC) E. faecalis LMG16216
E. faecalis V583 = test: microbe, parasite or virus in culture; type: cell-based, Enterococcus faecalis; details: Enterococcus faecalis, V583, 20 h, read-out: Minimal Inhibition Concentration (MIC) E. faecalis V583
E. faecium LMG11423 = test: microbe, parasite or virus in culture; type: cell-based; details: Enterococcus faecium, LMG11423, 20 h, read-out: Minimal Inhibition Concentration (MIC) E. faecium LMG11423
E. faecium LMG16003 = test: microbe, parasite or virus in culture; type: cell-based; details: Enterococcus faecium, LMG16003, 20 h, read-out: Minimal Inhibition Concentration (MIC) E. faecium LMG16003
S.aureus LMG8224 = test: microbe, parasite or virus in culture; type: cell-based, Staphylococcus aureus; details: Staphylococcus aureus, LMG8224, 20 h, read-out: Minimal Inhibition Concentration (MIC) S.aureus LMG8224
S.aureus LMG10147 = test: microbe, parasite or virus in culture; type: cell-based, Staphylococcus aureus; details: Staphylococcus aureus, LMG10147, 20 h, read-out: Minimal Inhibition Concentration (MIC) S.aureus LMG10147
S.aureus LMG15975 = test: microbe, parasite or virus in culture; type: cell-based, Staphylococcus aureus; details: Staphylococcus aureus, LMG15975, 20 h, read-out: Minimal Inhibition Concentration (MIC) S.aureus LMG15975
C. beijerinckii B504 = test: MIC test, anaerobes; type: cell-based
Procedure: (§1) The resveratrol derivatives were serially diluted in cMHB (BD Difco) in 96-well microplates. Plates were then inoculated with the indicator bacteria at a final concentration of 5 × 10^5 CFU/mL and incubated at 37 °C for 20 h. In the case of the anaerobic bacteria (Clostridium and Clostridioides), the test was performed following the recommendation of CLSI for anaerobes[77] but using RCM medium instead of cMHB. The cultures were cultivated inside an anaerobic chamber at 37 °C for 24 h. All the tests were performed in triplicate.

C. ihumii AP5 = test: MIC test, anaerobes; type: cell-based
Procedure: as §1

C. botulinum CECT551 = test: microbe, parasite or virus in culture; type: cell-based; details: Clostridium botulinum, CECT551, 24 h, read-out: Minimal Inhibition Concentration (MIC) C. botulinum CECT551
C. difficile CECT531 = test: microbe, parasite or virus in culture; type: cell-based, Clostridioides difficile; details: Clostridioides difficile, CECT531, 24 h, read-out: Minimal Inhibition Concentration (MIC) C. difficile CECT531
C. perfringens CECT376 = test: microbe, parasite or virus in culture; type: cell-based; details: Clostridium perfringens, CECT376, 24 h, read-out: Minimal Inhibition Concentration (MIC) C. perfringens CECT376
C. tetani CECT4629 = test: microbe, parasite or virus in culture; type: cell-based; details: Clostridium tetani, CECT4629, 24 h, read-out: Minimal Inhibition Concentration (MIC) C. tetani CECT4629
[2] = system: panel of aerobic and anaerobic Gram-positive bacteria; test: organism not typed; type: cell-based
E. coli LMG8224 = test: Outer membrane permeabilization test (MIC with or without L-11 peptide); details: for MIC: Escherichia coli, LMG8224, read-out: MIC (μM) L-11 + 0 μM; for MIC (μM) L-11 + 4 μM: presence of 4 μM L-11 outer-membrane-perturbing peptide
in vitro = details: human
[3] = system: B. cereus ATCC 10987, E. faecalis V583, E. faecium LMG 16003, and S. aureus LMG 8224; type: cell-based; details: 2-fold the MIC, 24 h, cMHB
B. cereus ATCC10987 [4] = test: Effect of the compounds on actively growing bacteria (lysis, OD600); type: cell-based, Bacillus cereus; details: 2×, 1×, and 0.5× the MIC added at mid exponential phase
B. cereus ATCC10987 [5] = test: Membrane potential assay DiSC3(5); details: 2×, 1×, and 0.5× the MIC
[6] = Clostridium beijerinckii, B504, 24 h; read-out: Minimal Inhibition Concentration (MIC) C. beijerinckii B504
[7] = 24 h; read-out: Minimal Inhibition Concentration (MIC) C. ihumii AP5

CCCCOc1ccc(/C=C/c2cc(OS(=O)(=O)O)cc(OS(=O)(=O)O)c2)cc1 [compound 14, 4′-butyl-3,5-disulfate resveratrol]
MIC (B. cereus ATCC10987 [1]): 128 µM (≈ 56.9 µg/mL) | MIC (B. cereus ATCC14579): 128 µM (≈ 56.9 µg/mL) | MIC (E. faecalis LMG08222): 32 µM (≈ 14.2 µg/mL) | MIC (E. faecalis LMG16216): 16 µM (≈ 7.11 µg/mL) | MIC (E. faecalis V583): 64 µM (≈ 28.4 µg/mL) | MIC (E. faecium LMG11423): 32 µM (≈ 14.2 µg/mL) | MIC (E. faecium LMG16003): 64 µM (≈ 28.4 µg/mL) | MIC (S.aureus LMG8224): 32 µM (≈ 14.2 µg/mL) | MIC (S.aureus LMG10147): 32 µM (≈ 14.2 µg/mL) | MIC (S.aureus LMG15975): 32 µM (≈ 14.2 µg/mL) | MIC (C. beijerinckii B504; [6]): 16 µM (≈ 7.11 µg/mL) | MIC (C. ihumii AP5; [7]): 32 µM (≈ 14.2 µg/mL) | MIC (C. botulinum CECT551): 21.3 ± 5.3 µM (≈ 9.47 µg/mL) | MIC (C. difficile CECT531): 32 µM (≈ 14.2 µg/mL) | MIC (C. perfringens CECT376): 32 µM (≈ 14.2 µg/mL) | MIC (C. tetani CECT4629): 16 µM (≈ 7.11 µg/mL) | antibacterial activity against the Gram-positive panel [2]: active against all Gram-positive bacterial strains examined

COc1cc(/C=C/c2ccc(O[C@@H]3O[C@H](C(=O)O)[C@@H](O)[C@H](O)[C@H]3O)cc2)cc(OC)c1 [compound 30, PTER glucuronate]
MIC (B. cereus ATCC10987 [1]): 16 µM (≈ 6.92 µg/mL) | MIC (B. cereus ATCC14579): 13.3 ± 2.6 µM (≈ 5.75 µg/mL) | MIC (E. faecalis LMG08222): 64 µM (≈ 27.7 µg/mL) | MIC (E. faecalis LMG16216): 128 µM (≈ 55.4 µg/mL) | MIC (E. faecalis V583): 128 µM (≈ 55.4 µg/mL) | MIC (S.aureus LMG8224): 32 µM (≈ 13.8 µg/mL) | MIC (S.aureus LMG10147): 32 µM (≈ 13.8 µg/mL) | MIC (S.aureus LMG15975): 32 µM (≈ 13.8 µg/mL) | MIC (C. beijerinckii B504; [6]): 10.7 ± 2.6 µM (≈ 4.63 µg/mL) | MIC (C. ihumii AP5; [7]): 8 µM (≈ 3.46 µg/mL) | MIC (C. botulinum CECT551): 4 µM (≈ 1.73 µg/mL) | MIC (C. difficile CECT531): 13.3 ± 2.6 µM (≈ 5.75 µg/mL) | MIC (C. perfringens CECT376): 5.3 ± 1.3 µM (≈ 2.29 µg/mL) | MIC (C. tetani CECT4629): 4 µM (≈ 1.73 µg/mL) | MIC [2]: < 16 µM | MIC (E. coli LMG8224): > 128 µM | MIC (μM) L-11 + 4 μM (E. coli LMG8224): 16 ± 0 µM

CC[Si](CC)(CC)Oc1ccc(/C=C/c2cc(O)cc(O)c2)cc1 [compound 31]
IC50 (in vitro): 32.1 ± 0.9 µM

CC(C)[Si](Oc1ccc(/C=C/c2cc(O)cc(O)c2)cc1)(C(C)C)C(C)C [compound 33]
MIC (B. cereus ATCC10987 [1]): 32 µM (≈ 12.3 µg/mL) | MIC (B. cereus ATCC14579): 26.6 ± 5.3 µM (≈ 10.2 µg/mL) | MIC (E. faecalis LMG08222): 8 µM (≈ 3.08 µg/mL) | MIC (E. faecalis LMG16216): 8 µM (≈ 3.08 µg/mL) | MIC (E. faecalis V583): 21.3 ± 5.3 µM (≈ 8.19 µg/mL) | MIC (E. faecium LMG11423): 16 µM (≈ 6.15 µg/mL) | MIC (E. faecium LMG16003): 5.3 ± 1.3 µM (≈ 2.04 µg/mL) | MIC (S.aureus LMG8224): 128 µM (≈ 49.2 µg/mL) | MIC (S.aureus LMG10147): 128 µM (≈ 49.2 µg/mL) | MIC (S.aureus LMG15975): 128 µM (≈ 49.2 µg/mL) | MIC (C. beijerinckii B504; [6]): 21.3 ± 5.3 µM (≈ 8.19 µg/mL) | MIC (C. ihumii AP5; [7]): 13.3 ± 2.6 µM (≈ 5.12 µg/mL) | MIC (C. botulinum CECT551): 10.7 ± 2.6 µM (≈ 4.12 µg/mL) | MIC (C. difficile CECT531): 16 µM (≈ 6.15 µg/mL) | MIC (C. perfringens CECT376): 26.6 ± 5.3 µM (≈ 10.2 µg/mL) | MIC (C. tetani CECT4629): 6.7 ± 1.3 µM (≈ 2.58 µg/mL) | bactericidal/bacteriostatic effect [3]: bactericidal | lysis of actively growing cells (B. cereus ATCC10987 [4]): most effective derivatives lysing the cells | IC50 (in vitro): 2.8 ± 0.2 µM | MIC (E. coli LMG8224): > 128 µM | MIC (μM) L-11 + 4 μM (E. coli LMG8224): 21.3 ± 5.3 µM

CC(C)[Si](Oc1cc(/C=C/c2ccc(OS(=O)(=O)O)cc2)cc(OS(=O)(=O)O)c1)(C(C)C)C(C)C [compound 35, 3,4′-Disulfate-5-triisopropylsilyl resveratrol]
MIC (B. cereus ATCC10987 [1]): 16 µM (≈ 8.72 µg/mL) | MIC (B. cereus ATCC14579): 21.3 ± 5.3 µM (≈ 11.6 µg/mL) | MIC (E. faecalis LMG08222): 13.3 ± 2.6 µM (≈ 7.24 µg/mL) | MIC (E. faecalis LMG16216): 8 µM (≈ 4.36 µg/mL) | MIC (E. faecalis V583): 16 µM (≈ 8.72 µg/mL) | MIC (E. faecium LMG11423): 16 µM (≈ 8.72 µg/mL) | MIC (E. faecium LMG16003): 13.3 ± 2.6 µM (≈ 7.24 µg/mL) | MIC (S.aureus LMG8224): 13.3 ± 2.6 µM (≈ 7.24 µg/mL) | MIC (S.aureus LMG10147): 21.3 ± 5.3 µM (≈ 11.6 µg/mL) | MIC (S.aureus LMG15975): 16 µM (≈ 8.72 µg/mL) | MIC (C. beijerinckii B504; Clostridium beijerinckii, B504, 24 h, read-out: Minimal Inhibition Concentration (MIC) C. beijerinckii B504): 64 µM (≈ 34.9 µg/mL) | MIC (C. ihumii AP5; 24 h, read-out: Minimal Inhibition Concentration (MIC) C. ihumii AP5): 64 µM (≈ 34.9 µg/mL) | MIC (C. botulinum CECT551): 64 µM (≈ 34.9 µg/mL) | MIC (C. difficile CECT531): 32 µM (≈ 17.4 µg/mL) | MIC (C. perfringens CECT376): 64 µM (≈ 34.9 µg/mL) | MIC (C. tetani CECT4629): 64 µM (≈ 34.9 µg/mL) | MIC (E. coli LMG8224): > 128 µM | MIC (μM) L-11 + 4 μM (E. coli LMG8224): 21.6 ± 5.3 µM

CC(C)C[C@@H]1NC(=O)[C@H](CCCN)NC(=O)[C@H](C(C)C)NC(=O)[C@@H]2CCCN2C(=O)[C@@H](Cc2ccccc2)NC(=O)[C@H](CC(C)C)NC(=O)[C@H](CCCN)NC(=O)[C@H](C(C)C)NC(=O)[C@@H]2CCCN2C(=O)[C@@H](Cc2ccccc2)NC1=O [gramicidin S, Gramicidin S] (cyclo(V[Orn]L[dF]PV[Orn]L[dF]P))
membrane potential change (DiSC3(5)) (B. cereus ATCC10987 [5]): induced a strong membrane depolarization
